Test results from patent publication US20250320496A1, “MODULATION OF ABCB11 GENE TRANSCRIPTION USING ANTISENSE OLIGONUCLEOTIDES TARGETING REGULATORY RNAS” (CAMP4 Therapeutics Corporation, priority 2022, published 2025).
Strand notation (5' to 3'): a small letter for the sugar, then the base; units joined by * are phosphorothioate-linked, units joined directly phosphodiester-linked; [ ] holds rarer units or linkages, { } end groups; capitals alone tell only the bases. e = 2'-O-(2-methoxyethyl) (MOE); [5mC] = 5-methylcytosine; d = 2'-deoxy (DNA)

System: human ABCB11 mRNA
Test: ASO treatment of primary human hepatocytes (PHH), ABCB11 mRNA by RT-qPCR normalized to B2M
Type: cell-based
Set-up: ABCB11 mRNA, dose titration: unit of the concentration uncertain
Conditions: PHHs; CO-3986 and CO-4529 tested at 2.5 (unit uncertain), 5 μM, and 10 μM
Description: Primary human hepatocytes (PHH) were thawed using Lonza Human Cryopreserved Hepatocyte Thawing Medium and plated in 96-well collagen-coated plates (5.5-6.0×10^4 cells per well). Four hours later, the media was replaced with sterile-filtered QualGro™ Hepatocyte Culture Medium (BioIVT) containing antibiotic supplement, 0.3 mg/ml Matrigel® matrix (Corning®), and ASO at the desired concentration (e.g., 1.25 μM, 2.5 μM, 5 μM, or 10 μM). After 72 hrs., cells were harvested by aspirating media, washing once with phosphate-buffered saline (PBS), and lysed with 150 μl of Buffer RLT lysis buffer (Qiagen®). Plates were frozen at-80° C. during cell lysis. After thawing, total RNA was isolated using the Qiagen RNEasy kit as instructed by manufacturer. cDNA (random-primed) was synthesized from 10 μl of RNA using the LifeTech High Capacity cDNA Reverse Transcription kit. 2 μl of cDNA was used for reverse transcription-quantitative PCR (RT-qPCR) analyses using standard Taqman” reagents from Applied Biosystems™ to measure ABCB11 and CYP7A1 gene expression. Gene expression data was normalized to the housekeeper gene, beta-2-microglobulin (B2M).
To assess the ability of ASOs targeting ABCB11 regRNAs to modulate the expression of human ABCB11, 195 ASOs targeting the human ABCB11 regRNAs were synthesized. These initial ASOs were screened in PHHs at 5 μM to determine their efficacy in increasing human ABCB11 mRNA using quantitative PCR. This initial screen identified 10 ASOs that induced increased expression of ABCB11 mRNA by more than 1.5-fold (as compared to untreated PHHs).

| Substance | ABCB11 mRNA, dose titration |
| --- | --- |
| CO-4529: ASO targeting eRNA RR64 of human ABCB11 (antisense eG*eT*eG*eG*eA*eG*e[5mC]*eA*eA*eA*e[5mC]*eT*eA*eG*eG*e[5mC]eA*e[5mC]*eT*eG) | dose-dependent increase |

Same assay, conditions: primary human hepatocytes, 5 μM ASO, normalized to untreated PHHs (UNT)

| Substance | ABCB11 mRNA FC (5 μM ASO vs. UNT) [fold change] |
| --- | --- |
| CO-4496 (antisense eG*eT*eA*e[5mC]*eT*eA*eG*eA*e[5mC]*eT*e[5mC]*eT*eG*e[5mC]*e[5mC]*eT*eG*eT*eG*eT) | 0.984 |
| CO-4497 (antisense eG*eG*eT*eG*eT*eT*eG*eA*eG*eA*eA*e[5mC]*eT*eA*eG*eA*eA*eT*eA*eT) | 1.024 |
| CO-4498 (antisense eG*eT*e[5mC]*e[5mC]*e[5mC]*eT*eG*eT*eG*eG*eT*eT*eA*e[5mC]*e[5mC]*eT*eA*eA*eA*eG) | 0.934 |
| CO-4499 (antisense eA*eA*eG*eG*eA*eA*eG*eG*eT*e[5mC]*eT*eA*eG*e[5mC]*eG*eG*eA*eG*eG*eT) | 1.202 |
| CO-4500 (antisense eA*eG*eA*e[5mC]*eT*eT*eT*eG*eG*e[5mC]*e[5mC]*eA*eG*eG*e[5mC]*eA*eA*eG*eA*e[5mC]) | 1.109 |
| CO-4501 (antisense eG*e[5mC]*eA*eT*eG*eG*eT*eA*eG*e[5mC]*eT*eA*eG*eT*eG*eA*eT*eA*eA*eT) | 1.023 |
| CO-4502 (antisense eA*eA*eA*eT*eGeT*eT*eG*eG*e[5mC]*e[5mC]e[5mC]*eT*eT*eG*eA*eG*eG*eA*eG) | 1.142 |
| CO-4503 (antisense eA*eT*eT*eG*eT*eA*eG*eG*eT*eG*e[5mC]eT*eG*e[5mC]*eG*eG*eG*eT*eA*eT) | 1.202 |
| CO-4504 (antisense eG*eT*eG*eT*e[5mC]*eT*eA*eT*eT*eT*eG*eG*eT*eA*eT*e[5mC]*eA*eG*eA*e[5mC]) | 1.232 |
| CO-4505 (antisense eG*eA*eG*e[5mC]*eA*e[5mC]*eA*e[5mC]*eA*eT*eT*e[5mC]*eA*e[5mC]*eT*e[5mC]*e[5mC]*eA*eT*eT) | 1.011 |
| CO-4506 (antisense eT*eG*e[5mC]*eA*eT*eT*eG*e[5mC]*eA*eT*eG*eT*eT*eG*eA*eG*e[5mC]*eT*eG*eG) | 1.169 |
| CO-4507 (antisense eG*eA*eA*eG*eA*eA*eT*eG*eG*eG*eA*eG*e[5mC]*eA*eA*eT*e[5mC]*e[5mC]*eG*e[5mC]) | 0.992 |
| CO-4508 (antisense eG*eT*eA*eG*eG*eA*eA*eG*eT*eT*eG*eA*eA*eT*eG*eA*eG*eT*eT*eG) | 1.185 |
| CO-4509 (antisense eT*eG*eG*eA*eT*eG*eT*eA*eG*eA*eT*eG*eA*eA*eT*eG*eG*e[5mC]*eA*eA) | 1.233 |
| CO-4510 (antisense eG*e[5mC]*e[5mC]*eA*e[5mC]*eA*e[5mC]*eG*eT*eT*eT*e[5mC]*eT*eT*eA*eT*eT*eG*e[5mC]*eG) | 1.084 |
| CO-4511 (antisense eG*eT*eG*eG*eG*eA*eG*eT*eG*eG*eT*eA*eA*eG*eA*eT*eT*eA*eG*e[5mC]) | 1.182 |
| CO-4512 (antisense eA*eA*e[5mC]*eG*eGeAeAeG*eG*eGeTeT*eAeA*eA*eG*eG*eT*eA*eT) | 1.087 |
| CO-4514 (antisense eG*e[5mC]*eG*eG*eG*eA*eT*eT*eA*eG*eA*eT*eG*eA*eG*eG*eT*e[5mC]*eT*eA) | 1.175 |
| CO-4515 (antisense eG*e[5mC]*e[5mC]*e[5mC]*eA*eA*eA*eT*eG*eA*eG*eG*eT*eG*eA*eT*eA*e[5mC]*eA*eA) | 0.978 |
| CO-4516 (antisense eA*eT*eG*eA*e[5mC]*eA*eT*eG*eA*eT*eA*eG*e[5mC]*eA*e[5mC]*e[5mC]*e[5mC]*eA*eA*e[5mC]) | 1.033 |
| CO-4517: parent ASO targeting a human ABCB11 regRNA, chemically modified to CO-7141 etc. (antisense e[5mC]*eT*eT*eA*eG*eG*eA*eG*eG*eA*eT*eT*eA*eT*eT*eT*eA*eA*e[5mC]*e[5mC]) | 0.914 |
| CO-4518 (antisense e[5mC]*eT*eA*e[5mC]*eT*eA*eG*eT*eT*eG*eT*eT*eA*e[5mC]*eA*e[5mC]*e[5mC]*eT*eT*eA) | 0.981 |
| CO-4519 (antisense eA*eG*eA*e[5mC]*eT*eG*eG*e[5mC]*eA*eT*eGeT*eG*eG*e[5mC]*eT*eT*e[5mC]*eA*e[5mC]) | 1.061 |
| CO-4520 (antisense eG*eG*eA*eA*eG*eA*eA*eG*eG*eT*eT*eA*eG*e[5mC]*eA*e[5mC]*eA*eG*eA*e[5mC]) | 0.945 |

| Substance | ABCB11 mRNA FC (5 μM ASO vs. UNT) [fold change] |
| --- | --- |
| CO-4521 (antisense eG*e[5mC]*eA*eT*eT*eT*e[5mC]*eA*eG*eA*eG*e[5mC]*eA*e[5mC]*eA*eG*eA*eG*eT*eG) | 1.092 |
| CO-4522 (antisense e[5mC]*eA*e[5mC]*eT*eG*eG*e[5mC]*e[5mC]*e[5mC]*eA*eT*e[5mC]*eA*eA*eT*eT*eG*e[5mC]*eA*eT) | 1.027 |
| CO-4523 (antisense eT*e[5mC]*eT*eG*e[5mC]*eA*eA*eA*eT*eT*eA*eA*eG*eA*eA*eG*e[5mC]*eA*e[5mC]eT) | 1.037 |
| CO-4524 (antisense e[5mC]*eA*eG*eA*eG*eA*eA*eA*e[5mC]*e[5mC]*eT*eA*eA*eA*eA*eT*eT*eG*eA*eG) | 1.243 |
| CO-4525 (antisense eA*e[5mC]*e[5mC]*e[5mC]*eA*e[5mC]*eA*eT*eA*eG*eT*eT*eG*eT*eA*e[5mC]*eT*e[5mC]*eT*e[5mC]) | 0.995 |
| CO-4526 (antisense eG*e[5mC]*eT*eT*eG*eT*eG*eA*eT*eG*eT*e[5mC]*e[5mC]*eA*eG*eA*eT*eG*eA*e[5mC]) | 1.048 |
| CO-4527 (antisense eG*eA*eG*e[5mC]*eA*eT*e[5mC]*eA*eG*eG*eT*eA*e[5mC]*e[5mC]*eA*eT*eG*eA*e[5mC]*eA) | 0.97 |
| CO-4528 (antisense e[5mC]*eT*eG*eG*eG*eA*eT*eA*eG*eG*eG*eT*eG*eG*eA*eT*e[5mC]*eT*eA*e[5mC]) | 0.883 |
| CO-4529: ASO targeting eRNA RR64 of human ABCB11 (antisense eG*eT*eG*eG*eA*eG*e[5mC]*eA*eA*eA*e[5mC]*eT*eA*eG*eG*e[5mC]eA*e[5mC]*eT*eG) | 1.05 |
| CO-6669 (antisense eG*eT*eT*eT*eA*eG*eT*eT*eG*eA*e[5mC]*eT*eG*e[5mC]*eA*eG*eA*eG*eG*eG) | 1.291 |
| CO-6670 (antisense eT*eA*eG*eT*eT*eT*eA*eG*eT*eT*eG*eA*e[5mC]*eT*eG*e[5mC]*eA*eG*eA*eG) | 1.157 |
| CO-6671 (antisense eT*eT*e[5mC]*eT*eG*eT*eA*eG*eT*eT*eT*eA*eG*eT*eT*eG*eA*e[5mC]*eT*eG) | 1.163 |
| CO-6672 (antisense eA*eG*eG*eA*e[5mC]*eA*e[5mC]*eA*eA*eT*eT*eT*e[5mC]*eT*eG*eT*eA*eG*eT*eT) | 1.391 |
| CO-6673 (antisense eG*eA*eA*eG*eG*dA*d[5mC]*dA*d[5mC]*dA*dA*dT*dT*dT*d[5mC]*eT*eG*eT*eA*eG) | 1.313 |
| CO-6674 (antisense eT*eG*eG*eA*eA*eG*eG*eA*e[5mC]*eA*e[5mC]*eA*eA*eT*eT*eT*e[5mC]*eT*eG*eT) | 1.175 |
| CO-6675 (antisense eA*eG*e[5mC]*eA*eA*eG*e[5mC]*eT*eG*eT*eG*eT*eG*eG*eA*eA*eG*eG*eA*e[5mC]) | 1.346 |
| CO-6676 (antisense eT*eA*eA*eA*eG*e[5mC]*eA*eA*eG*e[5mC]*eT*eG*eT*eG*eT*eG*eG*eA*eA*eG) | 1.204 |
| CO-6966 (antisense eA*eT*eG*eA*eA*eT*eG*eG*e[5mC]*eA*eA*eG*eG*eA*eG*eA*eG*eG*eA*eT) | 1.177 |
| CO-6967 (antisense eG*eA*eT*eG*eT*eA*eG*eA*eT*eG*eA*eA*eT*eG*eG*e[5mC]*eA*eA*eG*eG) | 1.405 |
| CO-6968 (antisense eT*eG*eG*eA*eT*dG*dT*dA*dG*dA*dT*dG*dA*dA*dT*eG*eG*e[5mC]*eA*eA) | 1.373 |
| CO-6969 (antisense eT*eG*eT*eG*eG*eA*eT*eG*eT*eA*eG*eA*eT*eG*eA*eA*eT*eG*eG*e[5mC]) | 1.266 |
| CO-6971 (antisense eA*eT*eG*eG*eG*eT*eG*eT*eG*eG*eA*eT*eG*eT*eA*eG*eA*eT*eG*eA) | 1.091 |
| CO-6972 (antisense eA*eA*eA*eT*eG*eG*eG*eT*eG*eT*eG*eG*eA*eT*eG*eT*eA*eG*eA*eT) | 1.207 |
